Results: patent publication US20250057808A1, “COMPOSITION COMPRISING BETA LACTAM FOR TREATING ALCOHOL DEPENDENCE AND ALCOHOL ASSOCIATED DISEASES OR CONDITIONS” (Temple University of the Commonwealth System of Higher …, priority 2023, published 2025)
“Also recorded” adds a separate entry of the source.

What was measured:
[1] = test system: PPAR-γ; assay: Western blot PPAR-γ expression in liver; format: in vivo, P rats; settings: MC-100093 50 mg/kg or ceftriaxone 200 mg/kg i.p. 5 days; between all groups
Method: Western Blot assay was performed to measure changes in the expression of GLT-1, xCT, mGluR1, mGluR5, PPAR-α, PPARγ, GAPDH and β-tubulin in the NAc-core and NAc-shell as described in previous publications. A lysis buffer containing protease and phosphatase inhibitors was used to generate a homogenate of liver, Nac-core, and Nac-shell samples. The amount of protein was quantified using a detergent compatible protein assay (Bio-Rad, Hercules, CA, USA) for each sample. Samples were mixed with laemmli dye and loaded with equal amounts on polyacrylamide gels (10%), which separated the proteins using electrophoresis. After that, polyvinylidene difluoride (PVDF) membranes were used to transfer the proteins electrophoretically from the gels. Membranes were incubated in 5% free-fat milk in Tris-buffered saline with Tween-20 (TBST) for 30-60 minutes at room temperature. Membranes were then incubated with appropriate primary antibodies overnight at 4° C.: rabbit anti-GLT-1 (1:5000, Abcam, ab41621), rabbit anti-xCT (1:2000, Abcam, ab175186), rabbit anti-mGluR1 (1:1000, Abcam, ab82211), rabbit anti-mGluR5 (1:1000, Abcam, ab76316), rabbit anti-PPAR-α (1:1000, Abcam, ab24509), and rabbit anti-PPARγ (1:1000, Abcam, ab209350). […]

[2] = test system: glutamate uptake; settings: astrocyte-neuron co-culture model, cited from earlier work
[3] = test system: mGluR5; assay: Western blot mGluR5 expression in NAc-core and NAc-shell; format: in vivo, P rats; settings: MC-100093 50 mg/kg or ceftriaxone 200 mg/kg i.p. 5 days
Method: (§1) We used micro-punch procedure to dissect the subregions of the NAc such as NAc-core and NAc-shell as well as the subregions of prefrontal cortex such as infralimbic (IL) and prelimbic (PL) from the brain on day 6 after the last injection day. P rats were removed from the cage and rapidly euthanized by CO2 inhalation followed by rapid decapitation with a guillotine. Brains were isolated and immediately frozen on dry ice and stored at −80° C. The stereotaxic coordinates provided by Paxinos and colleague's rat brain stereotactic atlas was used to isolate NAc-core and NAc-shell using a cryostat apparatus (−20° C.), which then kept at −80° C. for later western blot analyses.
Western Blot assay was performed to measure changes in the expression of GLT-1, xCT, mGluR1, mGluR5, PPAR-α, PPARγ, GAPDH and β-tubulin in the NAc-core and NAc-shell as described in previous publications. A lysis buffer containing protease and phosphatase inhibitors was used to generate a homogenate of liver, Nac-core, and Nac-shell samples. The amount of protein was quantified using a detergent compatible protein assay (Bio-Rad, Hercules, CA, USA) for each sample. Samples were mixed with laemmli dye and loaded with equal amounts on polyacrylamide gels (10%), which separated the proteins using electrophoresis. After that, polyvinylidene difluoride (PVDF) membranes were used to transfer the proteins electrophoretically from the gels. Membranes were incubated in 5% free-fat milk in Tris-buffered saline with Tween-20 (TBST) for 30-60 minutes at room temperature. Membranes were then incubated with appropriate primary antibodies overnight at 4° C.: rabbit anti-GLT-1 (1:5000, Abcam, ab41621), rabbit anti-xCT (1:2000, Abcam, ab175186), rabbit anti-mGluR1 (1:1000, Abcam, ab82211), rabbit anti-mGluR5 (1:1000, Abcam, ab76316), rabbit anti-PPAR-α (1:1000, Abcam, ab24509), and rabbit anti-PPARγ (1:1000, Abcam, ab209350). Mouse anti-β-tubulin (1:1000; BioLegend) was used as a loading control antibody for the brain samples and rabbit anti-GAPDH (1:5000; cell signaling) was used as a loading control antibody for the liver samples. Membranes were washed five times on the next day with TBST followed by incubation with appropriate secondary antibody (1:5000) for 90 minutes at room temperature. Chemiluminescent reagents (Super Signal West Pico, Pierce Inc.) were used to detect the proteins using a GeneSys imaging system to develop the digitized blot images. Water-control group data were represented as 100% and all other values were expressed relative to control group to detect changes in the expression of the protein of interest in the brain and liver samples.
All statistical analyses were conducted with Graphpad Prism software, with p-values of 0.05 or less being statistically significant. […]

[4] = rodent liver microsomes in vitro; cited from earlier work
[5] = test system: GLT-1; assay: GLT-1 expression in mPFC subregions IL and PL (further studies, 100 mg/kg); format: in vivo, Male P rats; settings: MC-100093 100 mg/kg i.p. 5 days
Method: as §1
Western Blot assay was performed to measure changes in the expression of GLT-1, xCT, mGluR1, mGluR5, PPAR-α, PPARγ, GAPDH and β-tubulin in the NAc-core and NAc-shell as described in previous publications. A lysis buffer containing protease and phosphatase inhibitors was used to generate a homogenate of liver, Nac-core, and Nac-shell samples. The amount of protein was quantified using a detergent compatible protein assay (Bio-Rad, Hercules, CA, USA) for each sample. Samples were mixed with laemmli dye and loaded with equal amounts on polyacrylamide gels (10%), which separated the proteins using electrophoresis. […]

[6] = test system: plasma protein; settings: cited from earlier work
[7] = cited from earlier work

Structure (SMILES): C[C@@H](O)[C@H]1C(=O)N[C@@H]1[C@@H](C)C(=O)N1CCN(C)CC1 [MC-100093]
- Protein expression of PPAR-γ in the liver [1]: not changed significantly
- Enhancement of glutamate uptake [2]: 23.5%
- IC50 ([2]; read-out: IC50 (enhancement of glutamate uptake)): 100 nM
- Protein expression of mGluR5 in the NAc-core ([3]; among all groups): non-significant difference; also recorded: no significant difference
- Protein expression of mGluR5 in the NAc-shell ([3]; vs control or ethanol groups): no significant change in the expression of mGluR5; also recorded: significantly downregulated in ethanol group compared to control, Ethanol-MC (50 mg/kg), and Ethanol-CEF (200 mg/kg) groups; also recorded: normalizing levels of mGluR5
- Stability in liver microsomes [4]: high stability
- GLT-1 expression in the prelimbic frontal cortex (PL) ([5]; vs control/saline and ethanol/saline): increased GLT-1 expression in both subregions of mPFC; also recorded: non-statistically significant increase of GLT-1 expression; also recorded: upregulated the expression of GLT-1
- GLT-1 expression in the infralimbic prefrontal cortex (IL) ([5]; vs ethanol/saline): increased GLT-1 expression in both subregions of mPFC; also recorded: significantly higher levels of GLT-1 expression; also recorded: increased the expression of GLT-1; also recorded: upregulated GLT-1 expression
- Binding to plasma protein [6]: low binding to plasma protein
- Aqueous solubility [7]: high aqueous solubility
